What was measured:
pKa of secondary dye = format: physicochemical; settings: second pKa of the dye
Excerpt: Structure A represents the general structure of phenolsulfonephthalein derivatives in protic solvents such as water or an alcohol while structure B represents the form that predominates in the dry state or in aprotic solvents such as ethers and acetonitrile. The phenolsulfonephthalein error indicators are pH indicators which include an ionizable proton having a pKa value such that the proton is displaced by the presence of protein. The pKa value of a phenolsulfonephthalein indicator is the pH at which one half of the number of indicator molecules include the deprotonated C ring phenolic hydroxyl group. In the case of the phenolsulfonephthalein protein error indicators illustrated above, two deprotonation events occur in order to cause an observable color change. The first deprotonation removes the proton from the aryl sulfonic acid on the A ring to yield the ion illustrated below as formula C: [drawing 2]
The pKa of this proton is less than one, resulting in the ionization of this moiety at all useful pH values. This ionizable group is also responsible for the aqueous solubility of these compounds. The second deprotonation involves the release of a proton from the C ring phenolic hydroxyl to yield the dianion. With this type of protein error indicator, the second deprotonization causes the observable color change which is indicative of the presence of protein in the sample being tested. The phenolsulfonephthalein protein error indicator is typically applied to an absorbent matrix material along with a buffer to provide an environment of constant pH, so that one can rely on the color change being the result of the presence of protein rather than the result of a pH change upon contact with the test fluid.

protein = experiment: Ka, affinity of secondary dye for protein; format: binding
Excerpt: The phenolsulfonephthalein protein error indicators are used in conjunction with the molybdate or tungstate salt assay for protein in which a fluid test sample is combined with a molybdate or tungstate salt and a dye which forms a complex therewith whose absorption band is shifted in the presence of protein. As is disclosed in U.S. Pat. No. 5,399,498; tungstate reacts with the indicator to form a complex whose color shifts in the presence of protein in a manner similar to that of molybdenum. This patent also discloses the use of phytic acid or derivatives thereof to reduce background interference in this sort of assay. […] This method is a total protein assay since the response is not dependent on the type of protein present in the test sample. […] Since total protein assays are useful in the detection of certain disease states, and the higher the total protein spillover into urine the more serious the potential problem, a total protein assay which provides a detectable response at high protein concentrations is desirable.

Row | SMILES | pKa (pKa of secondary dye) | affinity for protein (in words) (protein)
1 | O=S1(=O)OC(c2cc(Br)c(O)c(Br)c2)(c2cc(Br)c(O)c(Br)c2)c2ccccc21 [Secondary dye 1, Bromophenol blue] | 3.7 | –
2 | O=S1(=O)OC(c2cc(Br)c(O)c(Br)c2)(c2cc(Br)c(O)c(Br)c2)c2c(Br)c(Br)c(Br)c(Br)c21 [Secondary dye 2, Tetrabromophenol blue] | 3.5 | –
3 | O=S1(=O)OC(c2cc(Cl)c(O)c(Br)c2)(c2cc(Cl)c(O)c(Br)c2)c2ccccc21 [Secondary dye 3, Bromochlorophenol blue] | 3.8 | –
4 | O=S1(=O)OC(c2cc(I)c(O)c(I)c2)(c2cc(I)c(O)c(I)c2)c2ccccc21 [Secondary dye 4, Tetraiodophenolsulfonephthalein] | 4.0 | –
5 | O=[N+]([O-])c1cc(C2(c3cc(I)c(O)c([N+](=O)[O-])c3)OS(=O)(=O)c3c(Br)c(Br)c(Br)c(Br)c32)cc(I)c1O [Secondary dye 5, 5',5"-Dinitro-3',3"-Diiodo-3,4,5,6-Tetrabromophenolsulfonephthalein] | 1.5 | too high an affinity for proteins
6 | O=[N+]([O-])c1cc(C2(c3cc(Br)c(O)c([N+](=O)[O-])c3)OS(=O)(=O)c3c(Br)c(Br)c(Br)c(Br)c32)cc(Br)c1O [Secondary dye 6, 5',5"-Dinitro-3',3",3,4,5,6-hexabromophenolsulfonephthalein] | 1.6 | –
7 | O=[N+]([O-])c1cc(C2(c3cc(Br)c(O)c(I)c3)OS(=O)(=O)c3c(Br)c(Br)c(Br)c(Br)c32)cc(Br)c1O (centres unmarked) [Secondary dye 7, 5'-Nitro-5''-Iodo-3',3"3,4,5,6-hexabromophenolsulfonephthalein] | 1.6 | –
